Experimental data published in PubChem BioAssay AID256 (DTP/NCI, 2004).
Values joined by “and” are separate entries in the source; they are usually repeats but may differ in a detail not shown here. Identical values can stand only once. Toxic doses and inconclusive results are not listed.

Tested on: CD2F1 mice, L1210 leukemia ip, survival T/C
Assay: NCI In Vivo Anticancer Drug Screen. Data for tumor model L1210 Leukemia (intraperitoneal) in CD2F1 (CDF1) mice
Conditions: higher = longer survival
In short: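 Vehicle-treated tumor-bearing mice served as controls (C) for compound-treated mice (T). Reported figure is T divided by C.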

[1] = endpoint: mean survival time, dose: 200.0 mg/kg/injection, schedule: Q01DX009 (ip), vehicle: saline with Tween-80
[2] = endpoint: mean survival time, dose: 400.0 mg/kg/injection, schedule: Q01DX009 (ip), vehicle: saline with Tween-80
[3] = endpoint: mean survival time, dose: 100.0 mg/kg/injection, schedule: Q01DX001 (ip), vehicle: saline with Tween-80
[4] = endpoint: mean survival time, dose: 100.0 mg/kg/injection, schedule: Q01DX009 (ip), vehicle: saline with Tween-80
[5] = endpoint: mean survival time, dose: 100.0 mg/kg/injection, schedule: Q04DX003 (ip), vehicle: saline with Tween-80
[6] = endpoint: mean survival time, dose: 200.0 mg/kg/injection, schedule: Q01DX001 (ip), vehicle: saline with Tween-80
[7] = endpoint: mean survival time, dose: 200.0 mg/kg/injection, schedule: Q04DX003 (ip), vehicle: saline with Tween-80
[8] = endpoint: mean survival time, dose: 400.0 mg/kg/injection, schedule: Q01DX001 (ip), vehicle: saline with Tween-80
[9] = endpoint: mean survival time, dose: 400.0 mg/kg/injection, schedule: Q04DX003 (ip), vehicle: saline with Tween-80

C1CN1c1nc(N2CC2)nc(N2CC2)n1
T/C (endpoint: mean survival time, dose: 0.05 mg/kg/injection, schedule: Q01DX009 (ip), vehicle: saline): 100 % of control
T/C (endpoint: mean survival time, dose: 0.06 mg/kg/injection, schedule: Q01DX009 (ip), vehicle: saline): 150 % of control
T/C (endpoint: mean survival time, dose: 0.06 mg/kg/injection, schedule: Q03HX008 (ip), vehicle: saline): 100 % of control
T/C (endpoint: mean survival time, dose: 0.06 mg/kg/injection, schedule: Q03HX016 (ip), vehicle: saline): 95 % of control and 97 % of control
T/C (endpoint: mean survival time, dose: 0.06 mg/kg/injection, schedule: Q03HX024 (ip), vehicle: saline): 113 % of control
T/C (endpoint: mean survival time, dose: 0.1 mg/kg/injection, schedule: Q01DX009 (ip), vehicle: saline): 107 % of control
T/C (endpoint: mean survival time, dose: 0.12 mg/kg/injection, schedule: Q01DX009 (ip), vehicle: saline): 215 % of control and 100 % of control
T/C (endpoint: mean survival time, dose: 0.13 mg/kg/injection, schedule: Q03HX008 (ip), vehicle: saline): 110 % of control
T/C (endpoint: mean survival time, dose: 0.13 mg/kg/injection, schedule: Q03HX016 (ip), vehicle: saline): 104 % of control and 110 % of control
T/C (endpoint: mean survival time, dose: 0.13 mg/kg/injection, schedule: Q03HX024 (ip), vehicle: saline): 124 % of control
T/C (endpoint: mean survival time, dose: 0.2 mg/kg/injection, schedule: Q01DX009 (ip), vehicle: saline): 117 % of control
T/C (endpoint: mean survival time, dose: 0.25 mg/kg/injection, schedule: Q01DX005 (ip), vehicle: saline): 117 % of control
T/C (endpoint: mean survival time, dose: 0.25 mg/kg/injection, schedule: Q01DX009 (ip), vehicle: saline): 109 % of control
T/C (endpoint: mean survival time, dose: 0.25 mg/kg/injection, schedule: Q03HX024 (ip), vehicle: saline): 174 % of control
T/C (endpoint: mean survival time, dose: 0.4 mg/kg/injection, schedule: Q01DX009 (ip), vehicle: saline): 155 % of control
T/C (endpoint: mean survival time, dose: 0.5 mg/kg/injection, schedule: Q01DX001 (ip), vehicle: saline): 114 % of control
T/C (endpoint: mean survival time, dose: 0.5 mg/kg/injection, schedule: Q01DX005 (ip), vehicle: saline): 150 % of control
T/C (endpoint: mean survival time, dose: 0.5 mg/kg/injection, schedule: Q01DX007 (ip), vehicle: saline): 183 % of control
T/C (endpoint: mean survival time, dose: 0.5 mg/kg/injection, schedule: Q03HX008 (ip), vehicle: saline): 185 % of control
T/C (endpoint: mean survival time, dose: 0.5 mg/kg/injection, schedule: Q03HX016 (ip), vehicle: saline): 183 % of control
T/C (endpoint: mean survival time, dose: 0.5 mg/kg/injection, schedule: Q03HX024 (ip), vehicle: saline): 101 % of control
T/C (endpoint: mean survival time, dose: 0.5 mg/kg/injection, schedule: Q08DX002 (ip), vehicle: saline): 107 % of control
T/C (endpoint: mean survival time, dose: 0.5 mg/kg/injection, schedule: Q11DX002 (ip), vehicle: saline): 100 % of control
T/C (endpoint: mean survival time, dose: 1.0 mg/kg/injection, schedule: Q01DX001 (ip), vehicle: saline): 190 % of control
T/C (endpoint: mean survival time, dose: 1.0 mg/kg/injection, schedule: Q01DX005 (ip), vehicle: saline): 86 % of control
T/C (endpoint: mean survival time, dose: 1.0 mg/kg/injection, schedule: Q01DX007 (ip), vehicle: saline): 92 % of control
T/C (endpoint: mean survival time, dose: 1.0 mg/kg/injection, schedule: Q03DX003 (ip), vehicle: saline): 183 % of control
T/C (endpoint: mean survival time, dose: 1.0 mg/kg/injection, schedule: Q08DX002 (ip), vehicle: saline): 204 % of control
T/C (endpoint: mean survival time, dose: 1.0 mg/kg/injection, schedule: Q11DX002 (ip), vehicle: saline): 97 % of control
T/C (endpoint: mean survival time, dose: 2.0 mg/kg/injection, schedule: Q01DX001 (ip), vehicle: saline): 154 % of control and 157 % of control
T/C (endpoint: mean survival time, dose: 2.0 mg/kg/injection, schedule: Q03DX003 (ip), vehicle: saline): 211 % of control
T/C (endpoint: mean survival time, dose: 2.0 mg/kg/injection, schedule: Q08DX002 (ip), vehicle: saline): 184 % of control
T/C (endpoint: mean survival time, dose: 2.0 mg/kg/injection, schedule: Q11DX002 (ip), vehicle: saline): 100 % of control
T/C (endpoint: mean survival time, dose: 3.0 mg/kg/injection, schedule: Q01DX001 (ip), vehicle: saline): 169 % of control and 338 % of control
T/C (endpoint: mean survival time, dose: 4.0 mg/kg/injection, schedule: Q01DX001 (ip), vehicle: saline): 120 % of control
T/C (endpoint: mean survival time, dose: 4.0 mg/kg/injection, schedule: Q08DX002 (ip), vehicle: saline): 102 % of control
T/C (endpoint: mean survival time, dose: 4.0 mg/kg/injection, schedule: Q11DX002 (ip), vehicle: saline): 153 % of control
T/C (endpoint: mean survival time, dose: 62.0 micrograms/kg/injection, schedule: Q01DX009 (ip), vehicle: saline): 123 % of control
T/C (endpoint: mean survival time, dose: 125.0 micrograms/kg/injection, schedule: Q01DX009 (ip), vehicle: saline): 173 % of control
T/C (endpoint: median survival time, dose: 0.25 mg/kg/injection, schedule: Q01DX009 (ip), vehicle: saline): 100 % of control
T/C (endpoint: median survival time, dose: 0.5 mg/kg/injection, schedule: Q01DX009 (ip), vehicle: saline): 150 % of control and 185 % of control
T/C (endpoint: median survival time, dose: 1.0 mg/kg/injection, schedule: Q01DX009 (ip), vehicle: saline): 121 % of control and 100 % of control

CCN(CC)CCNC(=O)C(O)(c1ccccc1)c1ccccc1
T/C (endpoint: mean survival time, dose: 50.0 mg/kg/injection, schedule: Q01DX009 (ip), vehicle: saline): 98 % of control
T/C (endpoint: mean survival time, dose: 100.0 mg/kg/injection, schedule: Q01DX009 (ip), vehicle: saline): 103 % of control

CO[C@@]12[C@@H]3N[C@@H]3CN1C1=C(C(=O)C(Nc3cccc(O)c3)=C(C)C1=O)[C@@H]2COC(N)=O
T/C (endpoint: median survival time, dose: 1.5 mg/kg/injection, schedule: Q01DX001 (ip), vehicle: water): 113 % of control
T/C (endpoint: median survival time, dose: 3.0 mg/kg/injection, schedule: Q01DX001 (ip), vehicle: water): 119 % of control
T/C (endpoint: median survival time, dose: 12.0 mg/kg/injection, schedule: Q01DX001 (ip), vehicle: water): 122 % of control

COc1ccc(OC)c(NC(=O)NNC(=O)CNC(=O)Nc2cccc(C)n2)c1
T/C [1]: 92 % of control
T/C [2]: 88 % of control

O=[N+]([O-])c1cccc(-c2nn[nH]n2)c1
T/C [3]: 93 % of control
T/C [4]: 98 % of control
T/C [5]: 97 % of control
T/C [6]: 104 % of control
T/C [1]: 117 % of control
T/C [7]: 97 % of control
T/C [8]: 88 % of control
T/C [2]: 101 % of control
T/C [9]: 103 % of control

CCOC(=O)CC(=O)C(F)(F)F
T/C (endpoint: mean survival time, dose: 75.0 mg/kg/injection, schedule: Q01DX001 (ip), vehicle: saline): 95 % of control
T/C (endpoint: mean survival time, dose: 150.0 mg/kg/injection, schedule: Q01DX001 (ip), vehicle: saline): 97 % of control
T/C (endpoint: mean survival time, dose: 300.0 mg/kg/injection, schedule: Q01DX001 (ip), vehicle: saline): 101 % of control

CCN(CC)c1cccc(O)c1
T/C (endpoint: mean survival time, dose: 50.0 mg/kg/injection, schedule: Q01DX009 (ip), vehicle: saline with Tween-80): 92 % of control
T/C [4]: 98 % of control

CCn1c(COc2ccc(Br)cc2)c(COC(=O)c2cccc(Cl)c2)c2ccccc21
T/C [4]: 94 % of control
T/C [1]: 92 % of control
T/C [2]: 94 % of control

CS(=O)(=O)OC[C@@H](O)[C@@H](O)COS(C)(=O)=O
T/C (endpoint: mean survival time, dose: 100.0 mg/kg/injection, schedule: Q04DX003 (ip), vehicle: saline sonified): 94 % of control and 102 % of control
T/C (endpoint: mean survival time, dose: 200.0 mg/kg/injection, schedule: Q04DX003 (ip), vehicle: saline sonified): 100 % of control and 108 % of control
T/C (endpoint: mean survival time, dose: 400.0 mg/kg/injection, schedule: Q04DX003 (ip), vehicle: saline sonified): 97 % of control and 100 % of control

CCOC1OC(C(COC(C)=O)OC(C)=O)C(OC(C)=O)C(OC(C)=O)C1OC(C)=O (stereo not drawn)
T/C [3]: 104 % of control
T/C [6]: 96 % of control
T/C [8]: 101 % of control

CC(=O)NC1C(OS(=O)(=O)c2ccc(C)cc2)C(NC(C)=O)C(OC(C)=O)C(OC(C)=O)C1OC(C)=O (stereo not drawn)
T/C [3]: 97 % of control
T/C [6]: 103 % of control
T/C [8]: 101 % of control

CS(=O)(=O)c1nc(Cl)c(Cl)c(C#N)c1Cl
T/C (endpoint: mean survival time, dose: 5.0 mg/kg/injection, schedule: Q01DX009 (ip), vehicle: saline with Tween-80): 100 % of control
T/C (endpoint: mean survival time, dose: 10.0 mg/kg/injection, schedule: Q01DX009 (ip), vehicle: saline with Tween-80): 95 % of control
T/C (endpoint: mean survival time, dose: 20.0 mg/kg/injection, schedule: Q01DX009 (ip), vehicle: saline with Tween-80): 95 % of control

Clc1ccc(CSCc2ccc(Cl)cc2Cl)c(Cl)c1
T/C [4]: 96 % of control
T/C [5]: 100 % of control
T/C [1]: 100 % of control
T/C [7]: 104 % of control
T/C [2]: 98 % of control
T/C [9]: 100 % of control

CC(C)(C)S(=O)(=O)C(C)(C)C
T/C [5]: 98 % of control
T/C [7]: 93 % of control
T/C [9]: 93 % of control

CS(=O)(=O)Nc1ccc(NS(C)(=O)=O)cc1
T/C [5]: 98 % of control
T/C [7]: 102 % of control
T/C [9]: 97 % of control

COc1ccc2c(c1)CCN=C2CCN1C(=O)CCC1=O
T/C (endpoint: mean survival time, dose: 100.0 mg/kg/injection, schedule: Q04DX003 (ip), vehicle: saline): 101 % of control
T/C (endpoint: mean survival time, dose: 200.0 mg/kg/injection, schedule: Q04DX003 (ip), vehicle: saline): 98 % of control

CN(C)/C=N/NC(=O)C(O)c1ccccc1 (stereo not drawn)
T/C [4]: 102 % of control
T/C [1]: 102 % of control
T/C [2]: 100 % of control

[Cl][Pt+2][Cl].[NH-]C1CCCCC1C1CCCCC1[NH-] (stereo not drawn)
T/C (endpoint: mean survival time, dose: 6.25 mg/kg/injection, schedule: Q04DX003 (ip), vehicle: distilled water + Tween-80): 123 % of control
T/C (endpoint: mean survival time, dose: 25.0 mg/kg/injection, schedule: Q04DX003 (ip), vehicle: distilled water + Tween-80): 173 % of control
T/C (endpoint: mean survival time, dose: 100.0 mg/kg/injection, schedule: Q04DX003 (ip), vehicle: distilled water + Tween-80): 86 % of control
